The values that follow come from patent publication US20250161241A1, “CYSTEAMIDES, THERAPEUTIC COMPOSITIONS THEREOF, AND RELATED METHODS” (Boyce Thompson Institute for Plant Research, Inc., priority 2022, published 2025).

One assay relates to gut Tregs (colon tissue). The assay is described as follows: colon (gut) Treg levels in mice after oral gavage (flow cytometry). Type of assay: in vivo, mouse. The note with it: SPF mice, oral gavage 50 mg/kg/day, 14 days, vs vehicle, FIG. 66 bottom row. On the procedure: (§1) Butyrate-MCY (dissolved in water) was delivered by oral gavage at a rate of 50 mg/kg body weight per day in a volume of 100 μL for two weeks.
Mouse colons were removed, cleaned of attached fat tissues, and washed in ice-cold PBS (Sigma-Aldrich). They were then opened longitudinally and washed again in ice-cold PBS. Dissociation of epithelial cells was performed by shaking at 37° C. in HBSS (Sigma-Aldrich) containing 10 mM HEPES, 10 mM EDTA (Thermo Fisher Scientific) and 2 mM dithiothreitol (DTT) two times for 15 min each. After each step, samples were vortexed, and the supernatant containing the epithelial fraction was removed. […]
(§2) All antibodies above were used at 1:200 dilutions, except FoxP3 were used at 1:100 dilutions. Stained cells were analyzed on a 5 laser, 18 color custom-configuration BD LSRFortessa (BD). Data were collected using BD FACSDiva version 9.0 and analyzed using FlowJo (version 10.7.1, Tree Star).
For functional evaluation, the previously unreported MCY conjugates of butyrate were prioritized, given that their microbiota-dependent production is conserved in humans and considering that the corresponding parent metabolite, butyrate, serves important roles in immune homeostasis. […] FIG. 66 (top row) provides representative flow cytometry plots of Tregs and quantification of Tregs as percentage of all CD4+ T cells in brain tissue from vehicle or butyrate-MCY treated mice. […]
A general note: Flow cytometry measures light scatter and fluorescence of single cells or particles in a stream.

For the next assay, the system named is brain-resident Tregs. The assay is described as follows: brain-resident Treg levels in mice after oral gavage (flow cytometry, i.v. CD45 labeling). Type of assay: in vivo, mouse. Conditions: SPF mice, oral gavage 50 mg/kg/day, 14 days, vs vehicle; brain tissue; FIG. 66 top row. On the procedure:
as §1
For isolation of brain leukocyte populations, mice were euthanized with CO2 and perfused through the left ventricle with 20 mL PBS. The whole brain was removed and placed in 2.5 mL digestion buffer (PBS, 5% FCS, 1 mM HEPES) before being finely chopped. Collagenase D (Roche, 400 U) was added to the mixture, which was then incubated at 37° C. for 30 min before adding 50 μL 0.5 M EDTA, followed by a 5-min incubation. […]
as §2
For functional evaluation, the previously unreported MCY conjugates of butyrate were prioritized, given that their microbiota-dependent production is conserved in humans and considering that the corresponding parent metabolite, butyrate, serves important roles in immune homeostasis. […] SPF mice were supplemented via oral gavage with butyrate-MCY (50 mg/kg/day, 100 μL/day, 14 days), which was identified in the brain and serum metabolomes and the levels of brain-resident Tregs was measured. […]

As for `CCCC(=O)NCCSC` [butyrate-MCY], the “percentage of gut Tregs amongst CD4+ T cells” value in the assay with gut Tregs (colon tissue) is “significantly decreased”. The “percentage of brain-resident Tregs amongst CD4+ T cells” value in the assay with brain-resident Tregs is on record as “significantly decreased”.
